Data as given in patent US8455491B2, “6-cycloamino-3-(pyridazin-4-yl)imidazo[1,2-b]pyridazine and derivatives and pharmaceutical compositions comprising the same” (Sanofi, priority 2007, dated 2013).

Biological target: T1, casein kinase 1 epsilon (CK1 epsilon) (Homo sapiens, UniProt P49674)
T1 construct: Invitrogen Corporation (named as alternative)
Assay: Filter-plate assay of ATP-33P, inhibition of casein phosphorylation by CK1 epsilon
Format: biochemical
Details: casein substrate, ATP 10 μM, 2 hours at ambient temperature
Protocol: The capacity of the compounds of the invention to inhibit the phosphorylation of casein by casein kinase 1 epsilon and delta may be evaluated according to the procedure described in US 2005/0131012.
Filter-Plate Assay of ATP-^33P for the Screening of CK1 Epsilon Inhibitors:
The effect of the compounds on inhibition of the phosphorylation of casein by the enzyme casein kinase 1 epsilon (CK1 epsilon) is measured, using a casein assay with filtration of ATP-^33P in vitro.
Casein kinase 1 epsilon (0.58 mg/ml) is obtained via fermentation and purification processes performed according to methods that are well known to those skilled in the art, or may also be obtained from Invitrogen Corporation™ (human CK1 epsilon).
The compounds are tested at five different concentrations so as to generate IC50 values, i.e. the concentration at which a compound is capable of inhibiting the enzymatic activity by 50%, or alternatively the percentage of inhibition at a concentration of 10 micromolar.
“U”-bottomed Falcon plates are prepared by placing 5 μL of solutions of the compounds according to the invention at concentrations of 10, 1, 0.1, 0.01 or 0.001 μM in various wells. The solutions of the compounds according to the invention at these various concentrations are prepared by diluting in a test buffer (50 mM Tris, pH 7.5, […], 2 mM DTT and 1 mM EGTA) a stock solution in DMSO at a concentration of 10 mM. Next, 5 μL of dephosphorylated casein are added to a final concentration of 0.2 μg/μL, 20 μl of CK1 epsilon to a final concentration of 3 ng/μl, and 20 μl of ATP-^33P to a final concentration of 0.02 μCi/μl mixed with cold ATP (10 μM final—approximately 2×10^6 CPM per well). The final total test volume per well is equal to 50 μl.
The “U”-bottomed Falcon® test plate mentioned above is vortexed, and then incubated at ambient temperature for 2 hours. After 2 hours, the reaction is stopped by adding an ice-cold solution of 65 μl of ATP (2 mM) prepared in test buffer.
100 μl of the reaction mixture are then transferred from the “U”-bottomed Falcon® plate into Millipore® MAPH filter plates, preimpregnated with 25 μl of ice-cold 100% TCA. […]
The plates are left to dry overnight at ambient temperature. […] The radiation emitted by each well is then measured for 2 minutes in a Packard® Topcount NXT scintillation counter, in which the values of CPM/well are measured.
The percentage inhibition of the capacity of the enzyme to phosphorylate the substrate (casein) is determined for each concentration of compound tested. These inhibition data expressed as percentages are used to calculate the IC50 value for each compound compared with the controls.
The kinetic studies determined the KM value for ATP as being 21 μM in this test system.

T1 sequence (P49674 whole entry): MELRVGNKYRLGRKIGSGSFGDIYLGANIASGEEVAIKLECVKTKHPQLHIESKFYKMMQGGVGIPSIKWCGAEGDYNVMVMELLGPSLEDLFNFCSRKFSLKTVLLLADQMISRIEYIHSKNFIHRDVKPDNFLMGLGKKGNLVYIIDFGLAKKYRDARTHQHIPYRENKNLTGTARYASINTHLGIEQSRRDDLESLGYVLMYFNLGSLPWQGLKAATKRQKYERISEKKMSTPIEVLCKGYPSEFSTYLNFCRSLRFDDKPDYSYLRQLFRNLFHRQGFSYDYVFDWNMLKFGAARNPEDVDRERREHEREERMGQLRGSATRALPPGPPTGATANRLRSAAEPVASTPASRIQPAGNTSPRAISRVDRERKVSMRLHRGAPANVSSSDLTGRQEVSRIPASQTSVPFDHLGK

`CN1CCN(c2ccc3nc(-c4ccc(F)cc4)c(-c4ccnnc4)n3n2)CC1` [compound 5, 2-(4-fluorophenyl)-6-(4-methylpiperazin-1-yl)-3-pyridazin-4-yl-imidazo[1,2-b]pyridazine] was tested, and the IC50 was 0.016 to 0.033 µM.
